Laboratory results reported in patent US20230312576A1, “4-(7H-PYRROLO[2,3-D]PYRIMIDIN-4-YL)-3,6-DIHYDROPYRIDINE-1-(2H)-CARBOXAMIDE DERIVATIVES AS LIMK AND/OR ROCK KINASES INHIBITORS FOR USE IN THE TREATMENT OF CANCER” (CENTRE NATIONAL DE LA RECHERCHE SCIENTIFIQUE, priority 2020, published 2023).
Like-named read-outs stand apart in the source and are kept apart here.

Key:
[1] = tested on: cofilin phosphorylation, HeLa cells; assay: Cofilin phosphorylation by Western Blot (anti-phospho-Ser3-cofilin) in HeLa cells; type: cell-based; details: for inhibition at 25 µM: Homo sapiens
LIMK2 = LIMK2 (Homo sapiens (Human), UniProt P53671); assay: Lanthascreen Eu binding assay (TR-FRET), inhibition of LIMK2; details: Lanthascreen Eu binding assay
LIMK2, sequence (P53671 whole entry): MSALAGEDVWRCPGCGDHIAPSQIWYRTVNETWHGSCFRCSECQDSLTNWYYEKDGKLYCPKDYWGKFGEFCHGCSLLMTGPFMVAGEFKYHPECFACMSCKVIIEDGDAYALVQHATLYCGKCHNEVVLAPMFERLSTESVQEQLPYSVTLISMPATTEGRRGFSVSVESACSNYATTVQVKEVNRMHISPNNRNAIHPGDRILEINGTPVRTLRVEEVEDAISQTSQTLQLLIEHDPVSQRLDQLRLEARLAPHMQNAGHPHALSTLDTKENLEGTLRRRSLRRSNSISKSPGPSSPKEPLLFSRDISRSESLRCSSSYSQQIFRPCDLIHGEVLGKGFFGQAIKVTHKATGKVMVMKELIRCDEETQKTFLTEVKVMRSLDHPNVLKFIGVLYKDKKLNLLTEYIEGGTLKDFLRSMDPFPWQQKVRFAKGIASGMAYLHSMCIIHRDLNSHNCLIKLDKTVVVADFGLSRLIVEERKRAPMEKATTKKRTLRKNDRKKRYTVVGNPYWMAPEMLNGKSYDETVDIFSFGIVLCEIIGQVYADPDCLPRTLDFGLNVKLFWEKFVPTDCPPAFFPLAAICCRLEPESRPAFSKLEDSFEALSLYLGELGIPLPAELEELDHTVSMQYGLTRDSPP

LIMK1 = LIMK1 (Homo sapiens (Human), UniProt P53667); assay: Lanthascreen Eu binding assay (TR-FRET), inhibition of LIMK1; details: Lanthascreen Eu binding assay
LIMK1, sequence (P53667 whole entry): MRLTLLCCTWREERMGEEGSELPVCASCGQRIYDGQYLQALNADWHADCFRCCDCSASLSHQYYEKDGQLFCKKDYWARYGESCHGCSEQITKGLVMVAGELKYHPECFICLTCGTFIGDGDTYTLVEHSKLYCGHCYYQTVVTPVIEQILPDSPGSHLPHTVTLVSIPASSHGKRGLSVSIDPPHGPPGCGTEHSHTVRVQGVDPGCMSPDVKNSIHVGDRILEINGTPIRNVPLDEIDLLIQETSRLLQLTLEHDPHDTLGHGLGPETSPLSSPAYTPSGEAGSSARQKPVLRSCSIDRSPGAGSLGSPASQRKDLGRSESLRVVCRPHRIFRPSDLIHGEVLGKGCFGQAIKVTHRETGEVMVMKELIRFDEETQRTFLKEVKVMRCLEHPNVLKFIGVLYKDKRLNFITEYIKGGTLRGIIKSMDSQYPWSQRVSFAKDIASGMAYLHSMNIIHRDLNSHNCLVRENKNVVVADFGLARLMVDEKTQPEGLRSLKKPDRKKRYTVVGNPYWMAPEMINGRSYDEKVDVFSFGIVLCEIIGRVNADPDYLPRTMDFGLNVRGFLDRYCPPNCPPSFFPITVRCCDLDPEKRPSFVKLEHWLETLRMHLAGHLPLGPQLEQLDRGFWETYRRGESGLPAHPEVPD

ROCK1 = ROCK1 (Homo sapiens (Human), UniProt Q13464); assay: Z'Lyte assay, ROCK1 inhibition at a single concentration; type: biochemical; details: for inhibition at 1 µM: read-out: % inhibition (ROCK1) 1 uM, 1 uM
ROCK1, sequence (Q13464 whole entry): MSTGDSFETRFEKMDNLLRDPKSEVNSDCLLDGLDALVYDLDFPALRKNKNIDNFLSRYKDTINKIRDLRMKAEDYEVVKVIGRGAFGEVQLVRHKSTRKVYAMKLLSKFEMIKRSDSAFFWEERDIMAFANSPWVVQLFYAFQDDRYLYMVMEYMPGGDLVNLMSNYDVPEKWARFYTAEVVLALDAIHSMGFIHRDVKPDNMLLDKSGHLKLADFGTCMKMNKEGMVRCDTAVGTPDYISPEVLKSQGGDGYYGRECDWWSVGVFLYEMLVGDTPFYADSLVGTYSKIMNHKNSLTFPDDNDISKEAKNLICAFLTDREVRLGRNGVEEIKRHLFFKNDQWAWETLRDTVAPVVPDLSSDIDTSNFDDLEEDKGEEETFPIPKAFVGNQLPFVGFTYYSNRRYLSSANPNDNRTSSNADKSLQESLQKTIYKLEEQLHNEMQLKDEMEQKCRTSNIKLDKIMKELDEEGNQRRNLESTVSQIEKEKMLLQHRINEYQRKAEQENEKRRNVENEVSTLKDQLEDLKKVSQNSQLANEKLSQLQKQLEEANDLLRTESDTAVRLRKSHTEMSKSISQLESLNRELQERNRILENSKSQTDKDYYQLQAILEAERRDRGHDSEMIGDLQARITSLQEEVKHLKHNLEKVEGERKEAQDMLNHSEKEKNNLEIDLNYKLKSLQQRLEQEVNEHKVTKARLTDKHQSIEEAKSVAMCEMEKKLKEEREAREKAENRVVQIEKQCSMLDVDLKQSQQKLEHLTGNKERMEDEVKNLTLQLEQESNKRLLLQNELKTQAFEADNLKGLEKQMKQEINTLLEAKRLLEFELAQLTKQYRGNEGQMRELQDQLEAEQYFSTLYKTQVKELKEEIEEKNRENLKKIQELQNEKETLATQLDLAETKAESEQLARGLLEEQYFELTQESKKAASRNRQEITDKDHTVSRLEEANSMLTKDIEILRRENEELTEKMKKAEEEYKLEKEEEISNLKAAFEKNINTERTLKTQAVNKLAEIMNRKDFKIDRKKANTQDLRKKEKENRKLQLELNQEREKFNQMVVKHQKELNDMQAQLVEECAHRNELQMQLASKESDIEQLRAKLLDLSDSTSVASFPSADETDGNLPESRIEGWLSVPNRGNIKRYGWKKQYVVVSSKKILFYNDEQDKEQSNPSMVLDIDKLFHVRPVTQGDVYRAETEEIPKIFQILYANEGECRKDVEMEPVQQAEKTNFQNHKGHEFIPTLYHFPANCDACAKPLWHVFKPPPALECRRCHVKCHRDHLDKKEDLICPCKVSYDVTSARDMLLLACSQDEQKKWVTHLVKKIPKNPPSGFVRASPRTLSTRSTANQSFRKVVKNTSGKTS

ROCK2 = ROCK2 (Homo sapiens (Human), UniProt O75116); assay: Z'Lyte assay, ROCK2 inhibition at a single concentration; type: biochemical; details: for inhibition at 1 µM: read-out: % inhibition (ROCK2) 1 uM, 1 uM
ROCK2, sequence (O75116 whole entry): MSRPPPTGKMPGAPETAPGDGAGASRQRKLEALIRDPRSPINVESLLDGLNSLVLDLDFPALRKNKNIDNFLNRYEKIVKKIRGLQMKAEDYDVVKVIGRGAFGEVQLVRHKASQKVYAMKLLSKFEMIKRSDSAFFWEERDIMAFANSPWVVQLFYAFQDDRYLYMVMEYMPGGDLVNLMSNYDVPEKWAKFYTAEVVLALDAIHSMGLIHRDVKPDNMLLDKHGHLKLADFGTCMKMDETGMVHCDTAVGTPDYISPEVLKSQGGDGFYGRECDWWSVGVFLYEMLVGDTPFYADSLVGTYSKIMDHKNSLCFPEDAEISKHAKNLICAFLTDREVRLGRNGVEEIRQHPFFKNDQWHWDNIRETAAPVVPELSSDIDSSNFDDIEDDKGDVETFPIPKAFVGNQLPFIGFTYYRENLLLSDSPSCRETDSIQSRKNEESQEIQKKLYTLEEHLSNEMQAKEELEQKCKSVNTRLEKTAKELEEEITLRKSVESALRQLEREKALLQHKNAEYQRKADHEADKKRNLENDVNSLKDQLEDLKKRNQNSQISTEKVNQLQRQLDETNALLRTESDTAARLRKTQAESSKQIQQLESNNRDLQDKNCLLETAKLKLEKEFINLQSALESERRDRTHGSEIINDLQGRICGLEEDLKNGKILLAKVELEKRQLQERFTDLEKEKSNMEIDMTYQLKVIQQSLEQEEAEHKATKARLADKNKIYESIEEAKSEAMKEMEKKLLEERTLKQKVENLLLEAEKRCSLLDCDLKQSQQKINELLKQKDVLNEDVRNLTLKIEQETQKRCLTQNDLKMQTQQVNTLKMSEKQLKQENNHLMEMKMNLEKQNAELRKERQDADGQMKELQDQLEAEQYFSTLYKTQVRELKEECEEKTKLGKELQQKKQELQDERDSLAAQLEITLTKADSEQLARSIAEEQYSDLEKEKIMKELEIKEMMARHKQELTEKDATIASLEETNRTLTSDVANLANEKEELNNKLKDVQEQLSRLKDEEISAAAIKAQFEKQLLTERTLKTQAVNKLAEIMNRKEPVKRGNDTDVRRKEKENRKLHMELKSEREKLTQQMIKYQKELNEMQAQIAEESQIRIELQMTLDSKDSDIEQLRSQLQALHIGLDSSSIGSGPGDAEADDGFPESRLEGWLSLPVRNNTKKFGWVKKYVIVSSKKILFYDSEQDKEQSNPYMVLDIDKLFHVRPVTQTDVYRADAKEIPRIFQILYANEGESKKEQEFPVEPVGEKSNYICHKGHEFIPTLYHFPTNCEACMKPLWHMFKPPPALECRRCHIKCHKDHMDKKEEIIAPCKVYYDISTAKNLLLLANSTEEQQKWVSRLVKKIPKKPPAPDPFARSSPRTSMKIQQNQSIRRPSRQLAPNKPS

[2] = HeLa, 2 h, read-out: % inhibition of cofilin phosphorylation in HeLa cells (treatment 2 h, at 25 μM), Table 2, normalized to the control condition DMSO
[3] = read-out: % inhibition Cofilin phosphorylation HeLa cells treated 2 h with 25 uM of inhibitor, HeLa cells, 2 h, 25 uM

Compound: O=C(Nc1cccc(N2CCOCC2)c1)N1CC=C(c2ncnc3[nH]c4c(c23)CCC4)CC1 [Compound 130, N-(3-morpholinophenyl)-4-(7,9,11-triazatricyclo[6.4.0.02,6]dodeca-1(8),2(6),9,11-tetraen-12-yl)-3,6-dihydropyridine-1(2H)-carboxamide]
- inhibition at 25 µM [1, 2]: 79.2%
- inhibition at 25 µM [1, 3]: 79.2%
- Ki (LIMK2): 87.5 nM
- Ki (LIMK1): 26.7 nM
- inhibition at 1 µM (ROCK1): 26%
- inhibition at 1 µM (ROCK2): 0%

Compound: CN(C)C(=O)Nc1cccc(NC(=O)N2CC=C(c3ncnc4[nH]c5c(c34)CCC5)CC2)c1 [Compound 131, N-[3-(Dimethylcarbamoylamino)phenyl]-4-(7,9,11-triaza-tricyclo[6.4.0.02,6]dodeca-1(8),2(6),9,11-tetraen-12-yl)-3,6-dihydropyridine-1(2H)-carboxamide]
- inhibition at 25 µM [1, 2]: 82.9%
- inhibition at 25 µM [1, 3]: 82.9%
- Ki (LIMK2): 8.73 nM
- Ki (LIMK1): 46.9 nM
- inhibition at 1 µM (ROCK1): 14%
- inhibition at 1 µM (ROCK2): 1%

Compound: CN(C)Cc1cccc(NC(=O)N2CC=C(c3ncnc4[nH]c5c(c34)CCC5)CC2)c1 [Compound 132, N-[3-[(dimethylamino)methyl]phenyl]-4-(7,9,11-triaza-tricyclo[6.4.0.02,6]dodeca-1(8),2(6),9,11-tetraen-12-yl)-3,6-dihydropyridine-1(2H)-carboxamide]
- inhibition at 25 µM [1, 2]: 76.2%
- inhibition at 25 µM [1, 3]: 76.2%
- Ki (LIMK2): 415 nM
- Ki (LIMK1): 389 nM
- inhibition at 1 µM (ROCK1): -6%
- inhibition at 1 µM (ROCK2): 2%

Compound: CNC(=O)c1cccc(NC(=O)N2CC=C(c3ncnc4[nH]c5c(c34)CCC5)CC2)c1 [Compound 133, N-[3-(Methylcarbamoyl)phenyl]-4-(7,9,11-triazatricyclo [6.4.0.02,6]dodeca-1(8),2(6),9,11-tetraen-12-yl)-3,6-dihydropyridine-1(2)-carboxamide]
- % inhibition Cofilin phosphorylation HeLa cells treated 2 h with 25 uM of inhibitor ([1]; HeLa cells, 2 h, 25 uM): 78.8%
- % inhibition of cofilin phosphorylation in HeLa cells (treatment 2 h, at 25 μM) ([1]; Table 2, normalized to the control condition DMSO): 78.8%
- Ki (LIMK2): 40.5 nM
- Ki (LIMK1): 49.1 nM
- % inhibition (ROCK1) 1 uM (ROCK1; 1 uM): −19%
- % inhibition (ROCK2) 1 uM (ROCK2; 1 uM): 1%

Compound: CN(C)C(=O)c1cccc(NC(=O)N2CC=C(c3ncnc4[nH]c5c(c34)CCC5)CC2)c1 [Compound 134, N-[3-(Dimethylcarbamoyl)phenyl]-4-(7,9,11-triazatricyclo [6.4.0.02,6]dodeca-1(8),2(6),9,11-tetraen-12-yl)-3,6-dihydropyridine-1(2H)-carboxamide]
- inhibition at 25 µM [1, 2]: 77.1%
- inhibition at 25 µM [1, 3]: 77.1%
- Ki (LIMK2): 33.4 nM
- Ki (LIMK1): 36.1 nM
- inhibition at 1 µM (ROCK1): -20%
- inhibition at 1 µM (ROCK2): -5%

Compound: COCOCc1cccc(NC(=O)N2CC=C(c3ncnc4[nH]c5c(c34)CCC5)CC2)c1 [Compound 135, N-[3-(Methoxymethoxymethyl)phenyl]-4-(7,9,11-triaza-tricyclo[6.4.0.02,6]dodeca-1(8),2(6),9,11-tetraen-12-yl)-3,6-dihydropyridine-1(2H)-carboxamide]
- inhibition at 25 µM [1, 2]: 85%
- inhibition at 25 µM [1, 3]: 85%
- Ki (LIMK2): 36.2 nM
- Ki (LIMK1): 22.1 nM
- inhibition at 1 µM (ROCK1): -14%
- inhibition at 1 µM (ROCK2): -3%

Compound: COc1ccc(-c2cccc(NC(=O)N3CC=C(c4ncnc5[nH]c6c(c45)CCC6)CC3)c2)cc1 [Compound 136, N-[3-(4-Methoxyphenyl)phenyl]-4-(7,9,11-triaza-tricyclo[6.4.0.02,6]dodeca-1(8),2(6),9,11-tetraen-12-yl)-3,6-dihydropyridine-1(2H)-carboxamide]
- inhibition at 25 µM [1, 2]: 85.5%
- inhibition at 25 µM [1, 3]: 85.5%
- Ki (LIMK2): 21.6 nM
- Ki (LIMK1): 2.75 nM
- inhibition at 1 µM (ROCK1): 6%
- inhibition at 1 µM (ROCK2): 11%

Compound: Cc1c[nH]c2ncnc(C3=CCN(C(=O)Nc4cccc(-c5cccc(OCCCNS(C)(=O)=O)c5)c4)CC3)c12 [Compound 175, N-[3-[3-[3-(methanesulfonamido)propoxy]phenyl]phenyl]-4-(5-methyl-7H-pyrrolo[2,3-d]pyrimidin-4-yl)-3,6-dihydro-2H-pyridine-1-carboxamide]
- inhibition at 25 µM [1, 3]: 98.1%
- Ki (LIMK2): 9.66 nM
- Ki (LIMK1): 12 nM
- inhibition at 1 µM (ROCK1): 43%
- inhibition at 1 µM (ROCK2): 36%
